In patent publication EP4467141A1, “PYRAZOLO-QUINOLINES AS SELECTIVE INHIBITORS OF GENOTOXIC STRESS-INDUCED IKK/NF- KB PATHWAYS FOR CANCER THERAPY” (Max-Delbrück-Centrum für Molekulare Medizin in der …, priority 2023, dated 2024) one finds inhibition data, which are given here for two compounds.

Holding throughout (experiment): Kinase panel study
Common to all, as to format: biochemical
Holding throughout (details): read-out: Percentage of inhibition; for inhibition at 1 µM: 1000nM; for inhibition at 10 µM: 10000nM

One experiment has as its target T1, ITK (Homo sapiens, UniProt Q08881).
T1 construct: purchased Thermo Fisher Scientific
T1 sequence (Q08881 1-620): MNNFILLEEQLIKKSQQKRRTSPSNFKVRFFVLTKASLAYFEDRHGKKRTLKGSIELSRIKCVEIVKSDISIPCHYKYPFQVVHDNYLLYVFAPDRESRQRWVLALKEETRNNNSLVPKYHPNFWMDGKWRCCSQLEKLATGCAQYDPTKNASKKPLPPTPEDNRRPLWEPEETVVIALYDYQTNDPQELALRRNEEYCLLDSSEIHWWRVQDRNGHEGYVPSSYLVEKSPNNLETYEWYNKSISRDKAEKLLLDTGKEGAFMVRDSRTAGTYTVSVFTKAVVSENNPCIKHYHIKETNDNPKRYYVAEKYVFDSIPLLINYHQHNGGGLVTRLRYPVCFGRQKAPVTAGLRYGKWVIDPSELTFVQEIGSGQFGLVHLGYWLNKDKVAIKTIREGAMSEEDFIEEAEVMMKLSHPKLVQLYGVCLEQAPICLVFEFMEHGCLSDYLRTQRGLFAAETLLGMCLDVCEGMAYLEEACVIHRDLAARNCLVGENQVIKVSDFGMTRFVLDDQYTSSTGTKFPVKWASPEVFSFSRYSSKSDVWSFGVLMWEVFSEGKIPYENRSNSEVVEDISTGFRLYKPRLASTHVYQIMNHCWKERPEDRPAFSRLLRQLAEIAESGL
The method in brief: (§1)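 Single-point inhibition data at 10 µM or 1 µM compound are shown. They were generated in ZLyte- or Adapta-format biochemical assays performed externally under standard conditions.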

In another experiment the target is T2, MAPK13 (p38 delta) (Homo sapiens, UniProt O15264).
T2 construct: purchased Thermo Fisher Scientific
T2 sequence (O15264 1-365): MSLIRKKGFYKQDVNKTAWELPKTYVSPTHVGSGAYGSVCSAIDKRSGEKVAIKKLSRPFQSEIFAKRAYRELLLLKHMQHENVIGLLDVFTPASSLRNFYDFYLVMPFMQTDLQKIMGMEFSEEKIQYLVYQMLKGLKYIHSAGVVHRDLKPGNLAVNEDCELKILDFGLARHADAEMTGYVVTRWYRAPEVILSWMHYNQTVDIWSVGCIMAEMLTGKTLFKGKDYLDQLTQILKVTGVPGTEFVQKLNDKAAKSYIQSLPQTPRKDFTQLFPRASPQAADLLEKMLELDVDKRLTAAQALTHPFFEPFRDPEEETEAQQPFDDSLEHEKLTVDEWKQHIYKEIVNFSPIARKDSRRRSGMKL
The method in brief: as §1

A further experiment has as its target T3, EPHA2 (Homo sapiens, UniProt P29317).
T3 construct: purchased Thermo Fisher Scientific
The method in brief: as §1

The next experiment has as its target T4, CSNK1A1L (Homo sapiens, UniProt Q8N752).
T4 construct: purchased Thermo Fisher Scientific
T4 sequence (Q8N752 1-337): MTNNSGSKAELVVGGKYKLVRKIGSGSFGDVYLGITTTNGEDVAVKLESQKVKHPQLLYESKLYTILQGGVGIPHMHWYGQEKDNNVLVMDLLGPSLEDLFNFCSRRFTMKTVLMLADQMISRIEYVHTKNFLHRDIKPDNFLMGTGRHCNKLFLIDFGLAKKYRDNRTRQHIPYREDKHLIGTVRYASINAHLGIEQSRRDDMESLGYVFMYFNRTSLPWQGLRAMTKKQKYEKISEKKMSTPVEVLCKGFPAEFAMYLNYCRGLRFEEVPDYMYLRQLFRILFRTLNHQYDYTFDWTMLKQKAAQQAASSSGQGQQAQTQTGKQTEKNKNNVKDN
The method in brief: as §1

A further experiment concerns the target T5, SGKL (SGK3) (Homo sapiens, UniProt Q96BR1).
T5 construct: purchased Thermo Fisher Scientific
T5 sequence (Q96BR1 1-496): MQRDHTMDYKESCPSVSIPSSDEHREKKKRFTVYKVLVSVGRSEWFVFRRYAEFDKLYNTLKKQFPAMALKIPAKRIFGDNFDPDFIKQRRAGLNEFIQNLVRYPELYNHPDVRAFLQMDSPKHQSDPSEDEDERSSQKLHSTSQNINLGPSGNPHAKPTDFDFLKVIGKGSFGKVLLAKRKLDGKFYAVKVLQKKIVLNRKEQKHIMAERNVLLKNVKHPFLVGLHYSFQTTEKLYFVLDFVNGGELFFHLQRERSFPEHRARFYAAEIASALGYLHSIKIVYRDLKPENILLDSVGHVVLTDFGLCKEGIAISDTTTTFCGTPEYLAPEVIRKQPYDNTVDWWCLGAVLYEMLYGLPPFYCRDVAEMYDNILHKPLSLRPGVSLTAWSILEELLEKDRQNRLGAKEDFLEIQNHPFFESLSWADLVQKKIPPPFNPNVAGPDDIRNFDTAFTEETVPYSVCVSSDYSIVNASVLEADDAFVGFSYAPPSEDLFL
The method in brief: as §1

The inhibition is the drop in the measured response relative to a control, in per cent.

T3 sequence (P29317 24-976): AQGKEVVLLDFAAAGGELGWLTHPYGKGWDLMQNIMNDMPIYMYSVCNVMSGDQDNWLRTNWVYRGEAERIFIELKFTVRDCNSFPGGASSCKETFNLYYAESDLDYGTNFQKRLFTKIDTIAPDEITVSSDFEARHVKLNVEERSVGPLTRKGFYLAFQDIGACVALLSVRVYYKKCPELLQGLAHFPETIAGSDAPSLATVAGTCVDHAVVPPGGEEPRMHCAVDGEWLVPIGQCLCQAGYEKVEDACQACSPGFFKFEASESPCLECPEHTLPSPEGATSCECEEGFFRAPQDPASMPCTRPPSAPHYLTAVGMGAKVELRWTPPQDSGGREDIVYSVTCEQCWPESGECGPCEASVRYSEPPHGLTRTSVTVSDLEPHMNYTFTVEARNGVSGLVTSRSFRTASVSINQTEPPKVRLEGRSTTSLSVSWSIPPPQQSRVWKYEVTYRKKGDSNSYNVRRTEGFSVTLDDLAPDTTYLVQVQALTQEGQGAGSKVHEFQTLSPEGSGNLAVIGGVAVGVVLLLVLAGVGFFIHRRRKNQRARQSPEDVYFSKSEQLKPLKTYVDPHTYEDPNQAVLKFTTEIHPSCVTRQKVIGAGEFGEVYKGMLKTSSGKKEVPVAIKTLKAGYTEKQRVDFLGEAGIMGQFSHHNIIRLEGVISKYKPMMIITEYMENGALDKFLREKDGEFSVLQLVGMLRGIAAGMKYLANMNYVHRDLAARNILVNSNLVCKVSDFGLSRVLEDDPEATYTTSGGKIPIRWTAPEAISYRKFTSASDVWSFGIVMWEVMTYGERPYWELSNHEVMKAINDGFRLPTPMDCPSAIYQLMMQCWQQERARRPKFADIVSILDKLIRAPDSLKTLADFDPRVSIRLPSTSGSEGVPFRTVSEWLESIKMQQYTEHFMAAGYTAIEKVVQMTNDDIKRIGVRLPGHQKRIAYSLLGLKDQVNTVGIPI

On to `COc1ccc2c(c1OC)c(=O)n1c3ccc(O)cc3c3ccnc2c31` [MW01, 5-Hydroxy-10,11-dimethoxy-9H-benzo[c]indolo[3,2,1-ij][1,5]naphthyridin-9-one], for which the inhibition at 1 µM came out at 0% at ITK; 13% on MAPK13 (p38 delta); 6% at EPHA2; 1% at CSNK1A1L; 12% on SGKL (SGK3). Moreover, the inhibition at 10 µM at ITK is -2%; at MAPK13 (p38 delta), 11%; at EPHA2, 14%; on CSNK1A1L, 11%; at SGKL (SGK3), 10%.
Consider `COc1ccc2cc3c(N)nn(C(=O)c4cccc(N(C)C)c4)c3nc2c1` [MW05, (3-Amino-7-methoxypyrazolo[3,4-b]quinolin-1-yl)-[3-(dimethylamino)phenyl]methanone], for which the inhibition at 1 µM at ITK is -10%; at MAPK13 (p38 delta), 8%; on EPHA2 it was 13%; at CSNK1A1L, 1%; on SGKL (SGK3), 8%. In addition, the inhibition at 10 µM on ITK was -6%; at MAPK13 (p38 delta), 9%; on EPHA2, -15%; at CSNK1A1L it was 1%; on SGKL (SGK3) it was 6%.
